# Values quoted from earlier work, collected in patent publication US11013684B2, “Body fluid expanders comprising N-substituted aminosulfonic acid buffers” (AQIX, Ltd., priority 2007, dated 2021).
# Assays:
# [1] = system: cultured mammalian cells; conditions: long term studies
# [2] = for −ΔpKa/° C.: aqueous solution, 20° C.
−ΔpKa/° C. [2],pKa @ 20° C. ([2]; aqueous solution at 20° C.),SMILES,toxicity to cultured mammalian cells [1]
0.016,–,"O=S(=O)(O)CCN(CCO)CCO [BES, N,N-bis (2-hydroxyethyl)-2-aminoethanesulfonic acid]",non-toxic
0.018,–,"O=C(O)CN(CCO)CCO [BICINE, N,N-bis (2-hydroxyethyl) glycine]",–
0.009,6.80,"O=S(=O)(O)CCN1CCN(CCS(=O)(=O)O)CC1 [PIPES, piperazine-N,N′-bis(2-ethanesulfonic acid)]",–
0.021,–,"O=C(O)CNC(CO)(CO)CO [TRICINE, N-tris(hydroxymethyl) methylglycine]",–
